Test results: BindingDB's records for doi:10.3109/14756366.2012.763163 (Atatürk University, 2014)
Structures can show the parent of a compound that is named as a salt.

Experiments:
Carbonic anhydrase 1 = Carbonic anhydrase 1 (Homo sapiens, UniProt P00915); test: Esterase Activity Assay; conditions: pH 7.4; 25 °C
Description: (§1) CA activity was assayed by following the change in absorbance at 348 nm of 4-nitrophenylacetate (NPA) to 4-nitrophenylate ion over a period of 3 min at 25 °C using a spectrophotometer (Shimadzu, UVmini-1240 UV-VIS spectrophotometer) according to the method described by Verpoorte et al.37 The enzymatic reaction contained 1.4mL 0.05M Tris-SO4 buffer (pH 7.4), 1mL 3mM 4-NPA, 0.5mL H2O and 0.1mL enzyme solution (total volume, 3.0 mL). A reference measurement was obtained bypreparing the mixture without the enzyme solution. All measurements were recorded in triplicate.

Carbonic anhydrase 2 = Carbonic anhydrase 2 (Homo sapiens, UniProt P00918); test: Esterase Activity Assay; conditions: pH 7.4; 25 °C
Description: as §1

Carbonic anhydrase 1, sequence (P00915 whole entry): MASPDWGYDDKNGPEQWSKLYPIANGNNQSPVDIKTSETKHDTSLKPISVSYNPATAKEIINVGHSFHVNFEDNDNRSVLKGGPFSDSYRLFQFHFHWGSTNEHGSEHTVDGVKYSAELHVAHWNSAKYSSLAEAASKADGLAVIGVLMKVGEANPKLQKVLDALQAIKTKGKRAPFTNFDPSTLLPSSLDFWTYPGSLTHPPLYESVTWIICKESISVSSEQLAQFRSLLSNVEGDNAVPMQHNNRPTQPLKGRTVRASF

SMILES: COc1ccc(C(N)c2ccc(OC)c(OC)c2)c(OC)c1 (centres undefined) [(2,4-Dimethoxyphenyl)(3,4-dimethoxyphenyl)methanamine hydrochloride (23)]
- Ki (Carbonic anhydrase 1): 36 µM
- Ki (Carbonic anhydrase 2): 34.3 µM

SMILES: COc1ccc(C(NS(C)(=O)=O)c2ccc(OC)c(OC)c2)cc1OC [N-(bis(3,4-dimethoxyphenyl)methyl)methanesulfonamide (26)]
- Ki (Carbonic anhydrase 1): 25.6 µM
- Ki (Carbonic anhydrase 2): 18.1 µM

SMILES: COc1ccc(C(N)c2cccc(OC)c2OC)cc1OC (centres undefined) [(2,3-Dimethoxyphenyl)(3,4-dimethoxyphenyl)methanamine hydrochloride (25)]
- Ki (Carbonic anhydrase 1): 66.9 µM
- Ki (Carbonic anhydrase 2): 73.3 µM

SMILES: COc1ccc(C(N)c2ccc(OC)c(OC)c2)cc1OC [bis(3,4-dimethoxyphenyl)methanamine hydrochloride (22)]
- Ki (Carbonic anhydrase 1): 13.7 µM
- Ki (Carbonic anhydrase 2): 15.6 µM

SMILES: COc1ccc(C(NS(C)(=O)=O)c2cccc(OC)c2OC)cc1OC (centres undefined) [N-((2,3-dimethoxyphenyl)(3,4-dimethoxyphenyl)methyl)methanesulfonamide (28)]
- Ki (Carbonic anhydrase 1): 3.68 µM
- Ki (Carbonic anhydrase 2): 9.23 µM

SMILES: COc1ccc(C(N)c2cc(OC)c(OC)cc2C)cc1OC (centres undefined) [(4,5-Dimethoxy-2-methylphenyl)(3,4-dimethoxyphenyl)methanamine hydrochloride (24)]
- Ki (Carbonic anhydrase 1): 39.5 µM
- Ki (Carbonic anhydrase 2): 47.6 µM

SMILES: COc1ccc(C(NS(C)(=O)=O)c2cc(OC)c(OC)cc2C)cc1OC (centres undefined) [N-((4,5-dimethoxy-2-methylphenyl)(3,4-dimethoxyphenyl)methyl)methane sulfonamide (27)]
- Ki (Carbonic anhydrase 1): 48.6 µM
- Ki (Carbonic anhydrase 2): 18.9 µM
